Here are results for 54 molecules from patent US7652020B2, “Compounds for the treatment of inflammatory disorders” (Schering Corporation, priority 2004, dated 2010).

Where two headings read alike, the source gives them in different places. Bounds are passed on as bounds.

The target of the assay is T1, purified catalytic domain of recombinant human TACE (rhTACEc) (Homo sapiens, UniProt P78536, N452Q/S266A).
T1 construct: Residue 215 to 477 with two mutation (S266A and N452Q) and a 6×His tail; 6xHis (C); made in house; host or cells: baculovirus/Hi5 insect cells
T1 sequence (P78536 215-477 S266A/N452Q): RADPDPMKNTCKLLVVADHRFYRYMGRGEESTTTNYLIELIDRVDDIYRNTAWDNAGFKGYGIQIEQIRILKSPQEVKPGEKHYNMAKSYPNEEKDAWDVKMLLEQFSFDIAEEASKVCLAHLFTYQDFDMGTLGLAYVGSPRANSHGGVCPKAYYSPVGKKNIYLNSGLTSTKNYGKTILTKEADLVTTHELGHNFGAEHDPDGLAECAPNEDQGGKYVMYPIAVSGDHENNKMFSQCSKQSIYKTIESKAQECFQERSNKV
Description: TACE kinetic assay: cleavage of internally quenched peptide substrate SPDL-3, fluorescence. Type of assay: biochemical. As to conditions: read-out: Ki. Here is the method: TACE activity is determined by a kinetic assay measuring the rate of increase in fluorescent intensity generated by TACE catalyzed cleavage of an internally quenched peptide substrate (SPDL-3). […] It is purified from the baculovirus/Hi5 cells expression system using affinity chromatography. […] MCA is (7-Methoxycoumarin-4-yl)acetyl. Dpa is N-3-(2,4-Dinitrophenyl)-L-2,3-diaminopropionyl.
A 50 μl assay mixture contains 20 mM HEPES, pH 7.3, 5 mM CaCl2, 100 μM ZnCl2, 2% DMSO, 0.04% Methylcellulose, 30 μM SPDL-3, 70 pM rhTACEc and a test compound. RhTACEc is pre-incubated with the testing compound for 90 min. at 25° C. Reaction is started by addition of the substrate. […] Rate of enzymatic reaction is shown as Units per second. Effect of a test compound is shown as % of TACE activity in the absence of the compound.

Where [1] appears, read: TACE inhibitory activity, class symbols.
Where [2] appears, read: TACE, representative compounds, numeric values.

As usually defined, the Ki is the equilibrium dissociation constant of an inhibitor or competing ligand from its target. On to `C[C@@H](NC(=O)[C@H](O)[C@@H](O)C(=O)N1C[C@@H]2C[C@H](C1)c1cccc(=O)n1C2)c1ccc(-n2cccn2)cc1` [Compound 2097], for which, under setting [1], the Ki fell in the range of 100 to 1000 nM. Same read-out and setting: the figure for `N#Cc1ccccc1N1CCC2(CC1)CC2NC(=O)[C@H](O)[C@@H](O)C(=O)N1Cc2ccccc2C1` (stereo partly drawn) [Compound 2154] is greater than 1000 nM. Consider `Cc1nc2ccccc2n1Cc1csc(CNC(=O)[C@H](O)[C@@H](O)C(=O)N2CCCC2c2cccc(N(C)C)c2)n1` (stereo partly drawn), for which, under setting [2], the Ki came to 1 nM. Turning to `C[C@@H](NC(=O)[C@H](O)[C@@H](O)C(=O)N1CCc2cc(Cl)ccc2C1c1ccccc1)c1ccc(-n2cccn2)cc1` (stereo partly drawn) [Compound 2444], under setting [1], the Ki is less than 20 nM. Take `C[C@@H](NC(=O)[C@H](O)[C@@H](O)C(=O)N1CCC[C@@H]1c1ccn(-c2cccc(F)c2)n1)c1ccc(-n2cccn2)cc1` [Compound 2598]: under setting [1], the inhibition constant (Ki) is less than 20 nM. As to `C[C@@H](NC(=O)[C@H](O)[C@@H](O)C(=O)N1CC[C@H](O)[C@H]1c1cccc(Cl)c1)c1ccc(-n2cccn2)cc1` [Compound 2266], under setting [1], the Ki is less than 20 nM. Turning to `CNc1nc([C@H]2CCCN2C(=O)[C@H](O)[C@@H](O)C(=O)N[C@H](C)c2ccc(-n3cccn3)cc2)c(C#N)s1` [drawing 1316], the Ki under setting [2] stood at 2 nM.

For `CNc1nc([C@H]2c3ccccc3CN2C(=O)[C@H](O)[C@@H](O)C(=O)N[C@H](C)c2ccc(-n3cccn3)cc2)cs1`, the Ki under setting [2] was determined as 0.5 nM. Same read-out and setting: then `CC#CCOc1cc([C@@H](C)NC(=O)[C@H](O)[C@@H](O)C(=O)N2CCC[C@@H]2c2csc(NC(C)C)n2)ccc1-n1cccn1`, with 2.9 nM. Take `O=C(NCc1ccc(-c2ccccc2OC(F)(F)F)c[n+]1[O-])[C@H](O)[C@@H](O)C(=O)N1CCCC1` [Compound 2347]: the Ki under setting [1] was greater than 1000 nM. The same measure, in the same setting: then `C[C@](O)(C(=O)NCC1CCN(c2ccc(F)cc2C#N)CC1)[C@@H](O)C(=O)N1Cc2ccncc2C1` [Compound 2041], with 20 to 100 nM; and `CC#CCOc1cc([C@@H](C)NC(=O)[C@H](O)[C@@H](O)C(=O)N2CC=CC2c2cccc(Cl)c2)ccc1-n1cccn1` (stereo partly drawn) [Compound 2572], with less than 20 nM; and `O=C(NCc1ccc(-c2ccccc2OCC2CCCC2)cc1)[C@H](O)[C@@H](O)C(=O)N1CCCC1` [Compound 2340], with 20 to 100 nM. Regarding `Cc1cccc(C)c1Cc1csc(CNC(=O)[C@H](O)[C@@H](O)C(=O)N2CCCC2c2cccc(N3CCN(C)CC3)c2)n1` (stereo partly drawn), the Ki under setting [2] amounted to 2.5 nM. Take `N#Cc1ccccc1N1CCC2(CC1)CC2NC(=O)[C@H](O)[C@@H](O)C(=O)N1CCC[C@@H]1c1ccccc1` (stereo partly drawn) [Compound 2153]: under setting [1], the Ki was greater than 1000 nM.

With `CC1c2cnc(N)nc2CN1C(=O)[C@H](O)[C@@H](O)C(=O)N[C@H](C)c1ccc(-n2cccn2)cc1` (stereo partly drawn) [Compound 2051], the Ki under setting [1] is 20 to 100 nM. As for `C[C@@H]1CN(c2ccccc2C#N)CCC1CNC(=O)[C@H](O)[C@@H](O)C(=O)N1CCC[C@@H]1c1ccccc1` (stereo partly drawn) [Compound 2144], under setting [1], the Ki was less than 20 nM. As to `C[C@@H](NC(=O)[C@H](O)[C@@H](O)C(=O)N1CCc2ccccc2[C@@H]1c1csc(N)n1)c1ccc(-n2cccn2)cc1` [drawing 1309], the Ki under setting [2] was determined as 1.1 nM. As for `CC1c2cncnc2CN1C(=O)[C@H](O)[C@@H](O)C(=O)N[C@H](C)c1ccc(-n2cccn2)cc1` (stereo partly drawn) [Compound 2050], the inhibition constant (Ki) under setting [1] was in the range of 20 to 100 nM.

Take `C[C@H](c1ccc(-n2cccn2)cc1)N1CCO[C@H]([C@@H](O)C(=O)N2Cc3ccccc3C2)C1=O` [Compound 2474]: the Ki under setting [1] was greater than 1000 nM.

`CCOc1cc(F)ccc1-c1ccc(CNC(=O)[C@H](O)[C@@H](O)C(=O)N2Cc3ccncc3C2)cc1` [Compound 2042]: under setting [1], the Ki is less than 20 nM. `O=C(NC[C@H]1CC[C@@H](n2c(C(F)(F)F)nc3ccccc32)CC1)[C@H](O)[C@@H](O)C(=O)N1CCC[C@@H]1c1ccccc1` [Compound 2352]: under setting [1], the Ki was less than 20 nM. Still for that read-out and setting: then `N#Cc1ccccc1N1CCC2(CC1)CC2NC(=O)[C@H](O)[C@@H](O)C(=O)N1Cc2ccccc2C1` (stereo partly drawn) [Compound 2155], with greater than 1000 nM; and `Cc1nc([C@H]2CCCN2C(=O)[C@H](O)[C@@H](O)C(=O)N[C@H](C)c2ccc(-n3cccn3)cc2)cs1` [Compound 2591], with less than 20 nM; and `C[C@@H](NC(=O)[C@H](O)[C@@H](O)C(=O)N1CCC[C@@H]1c1ncccn1)c1ccc(-n2cccn2)cc1` [Compound 2242], with less than 20 nM. Still for that read-out and setting: then `C[C@@H](NC(=O)[C@H](O)[C@@H](O)C(=O)N1C2CCC1c1cncnc1C2)c1ccc(-n2cccn2)cc1` (stereo partly drawn) [Compound 2093], with greater than 1000 nM. For `O=C(NCC1CCN(c2ccccc2OCCC2CCCCC2)CC1)[C@H](O)[C@@H](O)C(=O)N1CCCC1` [Compound 2158], under setting [1], the inhibition constant (Ki) was in the range of 20 to 100 nM.

As for `N#Cc1cc(F)ccc1N1CCC(CNC(=O)[C@H](O)[C@@H](O)C(=O)N2C3CCC2CC3)CC1` [Compound 2094], under setting [1], the Ki is greater than 1000 nM.

As to `CC(c1cccc(Cl)c1)N(CC1CC1)C(=O)[C@H](O)[C@@H](O)C(=O)N[C@H](C)c1ccc(-n2cccn2)cc1` (stereo partly drawn) [Compound 2485], under setting [1], the Ki is greater than 1000 nM. The same measure, in the same setting: the figure for `C[C@@H](NC(=O)[C@H](O)[C@@H](O)C(=O)N1CC(C)(C)C[C@]1(C)c1cccc(Cl)c1)c1ccc(-n2cccn2)cc1` [Compound 2240] is 20 to 100 nM; for `CCNc1nnc([C@H]2c3ccccc3CN2C(=O)[C@H](O)[C@@H](O)C(=O)N[C@H](C)c2ccc(-n3cccn3)cc2)o1` (stereo in doubt) [Compound 2527] it is less than 20 nM. On the same count and under the same terms, the figure for `O=C(NCc1ccc(-c2ccccc2OCCN2CCOCC2)cc1)[C@H](O)[C@@H](O)C(=O)N1CCCC1` [Compound 2343] is greater than 1000 nM; for `CNc1nc(C2(C)CCCN2C(=O)[C@H](O)[C@@H](O)C(=O)N[C@H](C)c2ccc(-n3cccn3)cc2)cs1` (stereo partly drawn) [Compound 2244] it is less than 20 nM; for `O=C(NCc1ccc(-c2ccccc2OCCC2CCCCC2)cc1)[C@H](O)[C@@H](O)C(=O)N1CCCC1` [Compound 2338] it is less than 20 nM.

In the case of `COc1cccc([C@@H](C)NC(=O)[C@H](O)[C@@H](O)C(=O)N2Cc3cccnc3C2)c1` [Compound 2306], under setting [1], the inhibition constant (Ki) is greater than 1000 nM. The same measure, in the same setting: then `C[C@@H](NC(=O)[C@H](O)[C@@H](O)C(=O)N1CCc2ccccc2C1)c1ccc(-n2cccn2)cc1` [Compound 2438], with less than 20 nM; and `CNc1nc([C@H]2C[C@@H]3C[C@@H]3N2C(=O)[C@H](O)[C@@H](O)C(=O)N[C@H](C)c2ccc(-n3cccn3)cc2)cs1` [Compound 2246], with 20 to 100 nM.

With `CC1c2ncncc2CN1C(=O)[C@H](O)[C@@H](O)C(=O)N[C@H](C)c1ccc(-n2cccn2)cc1` (stereo partly drawn) [Compound 2049], the Ki under setting [1] is 20 to 100 nM. Regarding `CC(C)Nc1nc([C@H]2c3ccccc3CN2C(=O)[C@H](O)[C@@H](O)C(=O)N[C@H](C)c2ccc(-n3cccn3)cc2)cs1` [drawing 1298], the Ki under setting [2] came to 0.54 nM. With `O=C(NCC1CCN(c2ccc(F)cc2OCC(F)(F)F)CC1)[C@H](O)[C@@H](O)C(=O)N1CCCC1` [Compound 2142], the Ki under setting [1] fell in the range of 20 to 100 nM. Same read-out and setting: then `C[C@@H](NC(=O)[C@H](O)[C@@H](O)C(=O)N1CCc2ccccc2[C@@H]1c1csc(N)n1)c1ccc(-n2cccn2)cc1` [Compound 2585], with less than 20 nM; and `Cc1nc2c(s1)CN(C(=O)[C@H](O)[C@@H](O)C(=O)NCC1CCN(c3ccccc3C#N)CC1C)C2` (stereo partly drawn) [Compound 2151], with less than 20 nM. `CC#CCOc1cc([C@@H](C)NC(=O)[C@](C)(O)[C@@H](O)C(=O)N2Cc3cccnc3C2)ccc1-n1cccn1` [drawing 1313]: the Ki under setting [2] worked out at 1.44 nM. As for `CC(C)Nc1nc([C@H]2c3ccccc3CCN2C(=O)[C@H](O)[C@@H](O)C(=O)N[C@H](C)c2ccc(-n3cccn3)cc2)cs1` [Compound 2588], the inhibition constant Ki under setting [1] is less than 20 nM. Still for that read-out and setting: then `N#Cc1cc(F)ccc1N1[C@@H]2CC[C@H]1CC(CNC(=O)[C@H](O)[C@@H](O)C(=O)N1Cc3ccccc3C1)C2` (stereo partly drawn) [Compound 2149], with 100 to 1000 nM. Still for that read-out and setting: the figure for `C[C@@H](NC(=O)[C@H](O)[C@@H](O)C(=O)N1CCc2[nH]ncc2C1)c1ccc(-n2cccn2)cc1` [Compound 2073] is 20 to 100 nM; for `CNc1ncc2c(n1)C(C)N(C(=O)[C@H](O)[C@@H](O)C(=O)N[C@H](C)c1ccc(-n3cccn3)cc1)C2` (stereo partly drawn) [Compound 2053] it is 20 to 100 nM. The same measure, in the same setting: the figure for `C[C@@H](NC(=O)[C@H](O)[C@@H](O)C(=O)N1C2CCC1CC2)c1ccc(-n2cccn2)cc1` [Compound 2095] is 100 to 1000 nM. As to `Cc1noc([C@H]2c3ccccc3CN2C(=O)[C@H](O)[C@@H](O)C(=O)N[C@H](C)c2ccc(-n3cccn3)cc2)n1` (stereo in doubt) [Compound 2528], under setting [1], the Ki was less than 20 nM. On the same count and under the same terms, then `C[C@@H](NC(=O)[C@H](O)[C@@H](O)C(=O)N1Cc2cccnc2C1)c1ccc(-n2cccn2)c(O)c1` [Compound 2305], with less than 20 nM. The same measure, in the same setting: the figure for `CCOc1ncccc1-c1ccc(CNC(=O)[C@H](O)[C@@H](O)C(=O)N2CCC[C@@H]2c2cccc(Cl)c2)cc1` [Compound 2334] is less than 20 nM; for `C[C@@H]1CCC[C@H](C)N1C(=O)[C@H](O)[C@@H](O)C(=O)N[C@H](C)c1ccc(-n2cccn2)cc1` [Compound 2409] it is 100 to 1000 nM; for `O=C(NCc1ccc(-c2ccc(F)cc2OCCC2CCCCC2)cc1)[C@H](O)[C@@H](O)C(=O)N1CCCC1` [Compound 2342] it is 100 to 1000 nM. Consider `CNc1nc([C@H]2CCCN2C(=O)[C@H](O)[C@@H](O)C(=O)N[C@H](C)c2ccc(-n3cccn3)cc2)c(C)s1` [drawing 1315], for which the Ki under setting [2] stood at 2 nM.
